What was measured:
SJSA-1 = assay: cells; settings: Homo sapiens
[1] = biological target: E3 ubiquitin-protein ligase Mdm2 (Homo sapiens, UniProt Q00987); assay: Inhibition of MDM2 (unknown origin)
Chain of E3 ubiquitin-protein ligase Mdm2 (Q00987 whole entry): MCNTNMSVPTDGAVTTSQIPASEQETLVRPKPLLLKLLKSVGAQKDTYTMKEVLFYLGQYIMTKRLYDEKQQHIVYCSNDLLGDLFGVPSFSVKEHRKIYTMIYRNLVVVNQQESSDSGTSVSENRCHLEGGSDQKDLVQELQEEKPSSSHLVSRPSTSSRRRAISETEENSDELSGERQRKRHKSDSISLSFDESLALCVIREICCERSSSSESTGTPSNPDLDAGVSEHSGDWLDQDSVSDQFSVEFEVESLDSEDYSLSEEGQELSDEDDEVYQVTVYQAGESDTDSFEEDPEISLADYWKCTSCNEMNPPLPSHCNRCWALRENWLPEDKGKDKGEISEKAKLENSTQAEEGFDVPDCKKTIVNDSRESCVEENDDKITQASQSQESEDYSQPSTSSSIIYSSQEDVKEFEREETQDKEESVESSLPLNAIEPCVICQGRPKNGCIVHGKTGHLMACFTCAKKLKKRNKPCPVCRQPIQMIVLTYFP

| Structure (SMILES) | IC50 (SJSA-1) | IC50 [1] |
| --- | --- | --- |
| CN(C[C@H](C1CC1)N1C(=O)[C@@](C)(CC(=O)O)C[C@H](c2cccc(Cl)c2)[C@H]1c1ccc(Cl)cc1)S(=O)(=O)C1CC1 | 5 nM | – |
| CC1(C)CCC2(CC1)N[C@@H](C(=O)N[C@@H]1CC[C@@H](C(N)=O)OC1)[C@H](c1ccnc(Cl)c1F)[C@]21C(=O)Nc2cc(Cl)ccc21 | – | 5.57 nM |
| Nc1ccn([C@@H]2O[C@H](CO)[C@@H](O)[C@@H]2O)c(=O)n1 [CYTARABINE] | – | 20 nM |

Reference: ChEMBL document CHEMBL4265957, “The development of piperidinones as potent MDM2-P53 protein-protein interaction inhibitors for cancer therapy” (Eur J Med Chem, 2018)
